# What was measured:
# [1] = target: T1, HDAC8 (Homo sapiens, UniProt Q9BY41); assay: Histone deacetylase activity, continuous trypsin-coupled assay; format: biochemical; conditions: trypsin-coupled fluorescence assay, acetyl-Gly-Ala-(N-acetyl-Lys)-AMC substrate
# T1 sequence (Q9BY41 1-377): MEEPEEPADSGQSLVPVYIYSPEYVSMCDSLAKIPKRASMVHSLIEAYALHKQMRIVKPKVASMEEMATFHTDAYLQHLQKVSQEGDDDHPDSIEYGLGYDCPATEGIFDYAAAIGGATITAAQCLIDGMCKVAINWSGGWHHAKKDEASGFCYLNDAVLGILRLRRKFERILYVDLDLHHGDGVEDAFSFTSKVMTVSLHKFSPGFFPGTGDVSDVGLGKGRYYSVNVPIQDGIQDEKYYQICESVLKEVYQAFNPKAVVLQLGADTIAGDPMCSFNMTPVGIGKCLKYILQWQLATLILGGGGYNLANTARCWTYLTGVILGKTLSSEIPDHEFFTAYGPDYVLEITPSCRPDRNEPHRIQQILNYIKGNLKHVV
# Protocol: (§1) HDAC activity is measured using a continuous trypsin-coupled assay that has been described in detail previously (US 20070281934; Schultz et. al., Biochemistry, 43 (34), 11083-11091, 2004; Kim et al. (2006), Methods Mol. Biol., 325:273-283). For inhibitor characterization, measurements are performed in a reaction volume of 100 µL using 96-well assay plates in a fluorescence plate reader. For each isozyme, the HDAC protein in reaction buffer (50 mM HEPES, 100 mM KCl, 0.001% Tween-20, 5% DMSO, pH 7.4, supplemented with bovine serum albumin at concentrations of 0-0.05%, is mixed with inhibitor at various concentrations and allowed to incubate for 15 minutes. Trypsin is added to a final concentration of 50 nM, and acetyl-Gly-Ala-(N-acetyl-Lys)-AMC is added to a final concentration of 25-100 μM to initiate the reaction. After a 30 minute lag time, the fluorescence is measured over a 30 minute time frame using an excitation wavelength of 355 nm and a detection wavelength of 460 nm. The increase in fluorescence with time is used as the measure of the reaction rate. Inhibition constants Ki(app) were obtained using the program BatchKi (Biokin, Pullman, Wash.).
# [2] = target: HDAC1 (Homo sapiens, UniProt Q13547); assay: as above; format: biochemical; conditions: trypsin-coupled fluorescence assay, acetyl-Gly-Ala-(N-acetyl-Lys)-AMC substrate
# HDAC1, sequence (Q13547 whole entry): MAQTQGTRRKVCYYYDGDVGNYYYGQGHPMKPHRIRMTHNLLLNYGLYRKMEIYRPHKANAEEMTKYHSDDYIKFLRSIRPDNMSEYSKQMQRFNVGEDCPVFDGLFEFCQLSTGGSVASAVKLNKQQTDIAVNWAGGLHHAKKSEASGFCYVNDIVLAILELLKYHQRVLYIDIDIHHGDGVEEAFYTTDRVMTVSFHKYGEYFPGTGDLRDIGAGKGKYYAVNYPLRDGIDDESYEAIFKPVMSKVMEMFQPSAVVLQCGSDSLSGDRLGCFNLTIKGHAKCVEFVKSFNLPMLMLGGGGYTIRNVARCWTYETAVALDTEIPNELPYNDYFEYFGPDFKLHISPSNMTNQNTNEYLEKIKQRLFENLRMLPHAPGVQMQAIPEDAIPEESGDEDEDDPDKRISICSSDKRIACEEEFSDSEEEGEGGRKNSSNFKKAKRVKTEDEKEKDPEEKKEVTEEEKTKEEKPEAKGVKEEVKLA
# Protocol: as §1
# [3] = target: T2, HDAC6 (Homo sapiens, UniProt Q9UBN7); assay: as above; format: biochemical; conditions: trypsin-coupled fluorescence assay, acetyl-Gly-Ala-(N-acetyl-Lys)-AMC substrate
# T2 sequence (Q9UBN7 1-1215): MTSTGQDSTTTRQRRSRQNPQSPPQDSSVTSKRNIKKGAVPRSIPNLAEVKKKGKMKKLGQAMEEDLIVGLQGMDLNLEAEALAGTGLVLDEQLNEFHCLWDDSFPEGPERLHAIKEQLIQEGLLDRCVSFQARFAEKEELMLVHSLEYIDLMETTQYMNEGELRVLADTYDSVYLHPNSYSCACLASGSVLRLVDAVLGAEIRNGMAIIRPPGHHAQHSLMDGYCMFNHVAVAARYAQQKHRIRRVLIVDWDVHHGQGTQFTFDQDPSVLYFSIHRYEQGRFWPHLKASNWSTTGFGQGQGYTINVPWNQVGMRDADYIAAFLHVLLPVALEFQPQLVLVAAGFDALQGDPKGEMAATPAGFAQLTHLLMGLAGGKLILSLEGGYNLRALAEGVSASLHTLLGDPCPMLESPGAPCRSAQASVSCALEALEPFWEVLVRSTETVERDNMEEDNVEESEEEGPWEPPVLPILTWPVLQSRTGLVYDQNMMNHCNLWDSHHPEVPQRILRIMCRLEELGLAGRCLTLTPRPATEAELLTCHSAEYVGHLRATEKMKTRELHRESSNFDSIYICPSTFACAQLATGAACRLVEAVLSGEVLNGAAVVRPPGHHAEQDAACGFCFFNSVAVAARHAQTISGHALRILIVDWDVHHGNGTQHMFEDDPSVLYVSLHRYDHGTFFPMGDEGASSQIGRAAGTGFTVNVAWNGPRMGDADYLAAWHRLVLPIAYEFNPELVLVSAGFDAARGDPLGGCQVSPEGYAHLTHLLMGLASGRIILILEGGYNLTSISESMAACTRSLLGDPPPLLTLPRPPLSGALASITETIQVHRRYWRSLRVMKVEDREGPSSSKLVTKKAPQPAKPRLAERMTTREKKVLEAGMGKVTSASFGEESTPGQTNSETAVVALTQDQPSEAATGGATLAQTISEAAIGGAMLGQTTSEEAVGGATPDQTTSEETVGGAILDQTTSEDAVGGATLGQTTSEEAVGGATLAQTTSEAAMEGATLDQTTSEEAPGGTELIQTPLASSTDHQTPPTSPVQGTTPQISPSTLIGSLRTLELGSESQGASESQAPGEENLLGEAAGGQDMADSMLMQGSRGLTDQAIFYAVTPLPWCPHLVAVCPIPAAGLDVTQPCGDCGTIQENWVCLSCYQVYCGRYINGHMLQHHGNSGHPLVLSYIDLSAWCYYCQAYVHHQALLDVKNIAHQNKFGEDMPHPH
# Protocol: as §1
# [4] = test system: Jurkat cells; assay: Cell proliferation assay, growth inhibition by Alamar Blue; format: cell-based; conditions: Homo sapiens, 72 h, treated with compound for 3 days
# Protocol: Cell lines are obtained from DSMZ (Braunschweig, Germany) or ATCC (Manassas, Va.). Cells are grown in RPMI 1640 with 10% fetal bovine serum in a 5% CO2/air incubator at 37° C. Thapsigargin and BAPTA-AM are from Calbiochem (San Diego, Calif.). 3-((dimethylamino)methyl)-N-(2-(4-(hydroxycarbamoyl)phenoxy)ethyl)benzofuran-2-carboxamide is a broad-spectrum HDAC inhibitor which was synthesized as previously described. Other analogs with varying degrees of specificity towards the HDAC isoforms are synthesized as described herein.
# Tumor cell lines and human umbilical vein endothelial cells (HUVEC) are cultured for at least two doubling times, and growth is monitored at the end of compound exposure using an Alamar Blue™ (Biosource, Camarillo, Calif.) fluorometric cell proliferation assay as recommended by the manufacturer. Compounds are assayed in triplicate wells in 96-well plates. The concentration required to inhibit cell growth by 50% (GI50) and 95% confidence intervals are estimated from nonlinear regression using a 4-parameter logistic equation. The effect of HDAC8 selective inhibitor compounds on cell proliferation in Jurkat cells is measured. Apoptosis is measured by Annexin-V flow cytommetry. Growth inhibiton iss measured by Alamar Blue assay. Cells are treated with compound for 3 days.
SMILES,IC50 [1] [nM],IC50 [2] [nM],IC50 [3] [nM],GI50 [4] [nM]
"O=C(/C=C/c1ccccc1Oc1ccc(Cl)cc1)NO [Compound 6, (E)-3-(2-(4-chlorophenoxy)phenyl)-N-hydroxyacrylamide]",≤ 100,1000 to 10000,1000 to 10000,1430
"O=C(/C=C/c1ccccc1Oc1ccccc1)NO [Compound 7, (E)-N-Hydroxy-3-(2-phenoxyphenyl)acrylamide]",≤ 100,1000 to 10000,100 to 1000,
"Cc1ccc(Oc2ccccc2/C=C/C(=O)NO)cc1 [Compound 8, (E)-3-(2-(p-Tolyloxy)phenyl)-N-hydroxyacrylamide]",≤ 100,1000 to 10000,100 to 1000,6100
"O=C(/C=C/c1ccccc1Oc1ccc(F)cc1)NO [Compound 9, (E)-3-(2-(4-Fluorophenoxy)phenyl)-N-hydroxyacrylamide]",≤ 100,1000 to 10000,1000 to 10000,2000
"COc1ccc(Oc2ccccc2/C=C/C(=O)NO)cc1 [Compound 10, (E)-N-hydroxy-3-(2-(4-methoxyphenoxy)phenyl)acrylamide]",≤ 100,1000 to 10000,100 to 1000,2250
"O=C(/C=C/c1ccccc1Oc1cccc(Cl)c1)NO [Compound 11, (E)-3-(2-(3-Chlorophenoxy)phenyl)-N-hydroxyacrylamide]",≤ 100,1000 to 10000,100 to 1000,1980
"O=C(/C=C/c1ccccc1Oc1ccc(Cl)c(Cl)c1)NO [Compound 12, (E)-3-(2-(3,4-Dichlorophenoxy)phenyl)-N-hydroxyacrylamide]",≤ 100,1000 to 10000,1000 to 10000,1800
"Cc1cccc(Oc2ccccc2/C=C/C(=O)NO)c1 [Compound 13, (E)-N-hydroxy-3-(2-(m-tolyloxy)phenyl)acrylamide]",≤ 100,1000 to 10000,1000 to 10000,2500
"O=C(/C=C/c1ccccc1Oc1cccc(F)c1)NO [Compound 14, (E)-3-(2-(3-Fluorophenoxy)phenyl)-N-hydroxyacrylamide]",≤ 100,1000 to 10000,1000 to 10000,3580
"COc1cccc(Oc2ccccc2/C=C/C(=O)NO)c1 [Compound 15, (E)-N-hydroxy-3-(2-(3-methoxyphenoxy)phenyl)acrylamide]",≤ 100,1000 to 10000,100 to 1000,3370
"O=C(/C=C/c1ccccc1Oc1cccnc1)NO [Compound 16, (E)-N-Hydroxy-3-(2-(pyridin-3-yloxy)phenyl)acrylamide]",≤ 100,1000 to 10000,1000 to 10000,> 20000
"O=C(/C=C/c1ccccc1Oc1ccncc1)NO [Compound 17, (E)-N-Hydroxy-3-(2-(pyridin-4-yloxy)phenyl)acrylamide]",≤ 100,> 10000,> 10000,
"O=C(/C=C/c1ccccc1OC1CCN(C(=O)c2ccccc2)CC1)NO [Compound 20, (E)-3-(2-(1-benzoylpiperidin-4-yloxy)phenyl)-N-hydroxyacrylamide]",≤ 100,1000 to 10000,1000 to 10000,9700
"CC(=O)Nc1ccc(Oc2cccc(Cl)c2)c(/C=C/C(=O)NO)c1 [Compound 42, (E)-3-(5-acetamido-2-(3-chlorophenoxy)phenyl)-N-hydroxyacrylamide]",≤ 100,> 10000,> 10000,
"O=C(/C=C/c1cc(NCc2cccnc2)ccc1Oc1ccc(F)cc1)NO [Compound 49, (E)-3-(2-(4-fluorophenoxy)-5-(pyridin-3-ylmethylamino)phenyl)-N-hydroxyacrylamide]",≤ 100,> 10000,1000 to 10000,
"O=C(/C=C/c1ccc(OCc2cccnc2)cc1Oc1cccc(Cl)c1)NO [Compound 59, (E)-3-(2-(3-chlorophenoxy)-4-(pyridin-3-ylmethoxy)phenyl)-N-hydroxyacrylamide]",≤ 100,1000 to 10000,100 to 1000,
"O=C(/C=C/c1ccc(OCCN2CCOCC2)cc1Oc1cccc(Cl)c1)NO [Compound 67, (E)-3-(2-(3-chlorophenoxy)-4-(2-morpholinoethoxy)phenyl)-N-hydroxyacrylamide]",≤ 100,1000 to 10000,100 to 1000,
"CN1CCN(CCOc2ccc(/C=C/C(=O)NO)c(Oc3cccc(Cl)c3)c2)CC1 [Compound 68, (E)-3-(2-(3-chlorophenoxy)-4-(2-(4-methylpiperazin-1-yl)ethoxy)phenyl)-N-hydroxyacrylamide]",≤ 100,1000 to 10000,100 to 1000,
"CN(C)CCOc1ccc(/C=C/C(=O)NO)c(Oc2cccc(Cl)c2)c1 [Compound 69, (E)-3-(2-(3-chlorophenoxy)-4-(2-(dimethylamino)ethoxy)phenyl)-N-hydroxyacrylamide]",≤ 100,100 to 1000,100 to 1000,
"COCCOc1ccc(/C=C/C(=O)NO)c(Oc2ccc(Cl)c(Cl)c2)c1 [Compound 80, (E)-3-(2-(3,4-dichlorophenoxy)-4-(2-methoxyethoxy)phenyl)-N-hydroxyacrylamide]",≤ 100,> 10000,1000 to 10000,

# From US20150045367A1, “CINNAMIC ACID HYDROXYAMIDES AS INHIBITORS OF HISTONE DEACETYLASE 8” (PHARMACYCLICS, INC., priority 2011, published 2015)
